Measurements: PMC8956739, “A synthetic lipopeptide targeting top-priority multidrug-resistant Gram-negative pathogens” (Nature Communications, 2022)
In brackets after ≈: the same amount, converted by molar mass. Several values for one entry are separate records, joined by “and”; a condition that tells them apart may be missing. Equal entries are not always repeated. Where two headings read alike, the source gives them in different places. Residues, ends and D or L forms follow the SMILES beside them.

Tests used:
Format in all cases: cell-based, Acinetobacter baumannii
A. baumannii AB5075 [1] = assay: Transcriptomic analysis (RNA-Seq) of bacteria
[2] = test system: MDR clinical isolates of A. baumannii (n = 210, 200 carbapenem-resistant)
How it was run: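 Compounds were serially diluted in CaMHB, bacteria were added, and the lowest inhibitory concentration was recorded after broth microdilution testing.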

A. baumannii AB5075 [3] = conditions: AB5075
How it was run: (§1)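 Each strain is tested in cation-adjusted Mueller–Hinton broth using the micro-dilution technique, and growth inhibition gives the MIC.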

A. baumannii FADDI-AB030 = conditions: FADDI-AB030
How it was run: as §1

A. baumannii FADDI-AB034 = conditions: FADDI-AB034
How it was run: as §1

A. baumannii ATCC 19606 = conditions: ATCC 19606
How it was run: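 Susceptibility: microdilution MIC in CaMHB.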

A. baumannii AB5075 [4] = assay: In vitro passaging, emergence of resistance
Protocol: Log-phase cultures (OD600 = 0.5, ~10^8 CFU/mL) of A. baumannii AB5075 were inoculated (1:10, v/v) in 200 μL fresh CaMHB (cation-adjusted Mueller–Hinton broth) containing 2, 8 and 16 μg/mL polymyxin B, colistin, F287, and F365 in a 96-well microplate with 4 biological replicates. The cultures were incubated at 37 °C for 12 h before the next dilution (1:10, v/v) with fresh CaMHB. Successive subculturing was conducted for 7 days.

[5] = L vs Cont, 4h, pathway Fatty Acid and Lipid Degradation
[6] = L, 4h vs 1h, RNA-Seq A. baumannii AB5075
[7] = MDR clinical isolates of (n = 210, 200 carbapenem-resistant)

CC[C@@H]1NC(=O)[C@@H](CC(C)C)NC(=O)[C@H](CCN)NC(=O)[C@@H](NC(=O)[C@H](CN)NC(=O)[C@@H](NC(=O)[C@H](CCN)NC(=O)c2ccc(Cl)cc2Cl)[C@@H](C)O)CCNC(=O)[C@H]([C@@H](C)O)NC(=O)[C@H](CCN)NC(=O)[C@H](CCN)NC1=O [Lipopeptide F365] (HELM PEPTIDE1{[O=C(c1ccc(Cl)cc1Cl)[*:2]].[Dab].T.[NC[C@H](N[*:1])C(=O)[*:2]].[Dab].[Dab].[dL].[Abu].[Dab].[Dab].T}$PEPTIDE1,PEPTIDE1,5:R3-11:R2$$$V2.0)
log2FC, gene ABUW_RS05045 (acyl-CoA thioesterase) (A. baumannii AB5075 [1]; [5]): 0.02763 | log2FC, gene ABUW_RS17575 (acyl-CoA thioesterase) (A. baumannii AB5075 [1]; [5]): -0.0188 | 4h_1h logFC (Differential gene expression for all genes), Geneid ABUW_RS00005 (A. baumannii AB5075 [1]; [6]): -0.03686 | 4h_1h logFC (Differential gene expression for all genes), Geneid ABUW_RS00010 (A. baumannii AB5075 [1]; [6]): -0.6141 | 4h_1h logFC (Differential gene expression for all genes), Geneid ABUW_RS00015 (A. baumannii AB5075 [1]; [6]): -0.239 | 4h_1h logFC (Differential gene expression for all genes), Geneid ABUW_RS00020 (A. baumannii AB5075 [1]; [6]): -0.06215 | MIC50 [2, 7]: 0.25 µg/mL (≈ 0.215 µM) | MIC90 [2, 7]: 1 µg/mL (≈ 0.862 µM) | potency relative to polymyxin B ([2]; MIC50/MIC90, A. baumannii panel): ≤ 4 fold | Number of isolates ([2]; isolates with MIC 0.05 µg/mL): 1 | Number of isolates ([2]; isolates with MIC 0.125 µg/mL): 7 | Number of isolates ([2]; isolates with MIC 0.25 µg/mL): 99 | Number of isolates ([2]; isolates with MIC 0.5 µg/mL): 81 | Number of isolates ([2]; isolates with MIC 1 µg/mL): 8 | Number of isolates ([2]; isolates with MIC 2 µg/mL): 9 | Number of isolates ([2]; isolates with MIC 4 µg/mL): 1 | Number of isolates ([2]; isolates with MIC 8 µg/mL): 0 | Number of isolates ([2]; isolates with MIC 16 µg/mL): 1 | Number of isolates ([2]; isolates with MIC 32 µg/mL): 2 | Number of isolates ([2]; isolates with MIC 64 µg/mL): 1 | Number of isolates ([2]; isolates with MIC >64 µg/mL): 0 | MIC A. baumannii AB5075 (A. baumannii AB5075 [3]): 0.5 µg/mL (≈ 0.431 µM) | MIC A. baumannii FADDI-AB030 (A. baumannii FADDI-AB030): 0.25 µg/mL (≈ 0.215 µM) | MIC A. baumannii FADDI-AB034 (A. baumannii FADDI-AB034): 0.25 µg/mL (≈ 0.215 µM) | MIC A. baumannii ATCC 19606 (A. baumannii ATCC 19606): 0.25 µg/mL (≈ 0.215 µM) | OD600 (A. baumannii AB5075 [4]; 8 ug/mL, time 0 h, passage 0, replicates rep1-rep4, raw OD600 (blank OD600 0.125333)): 0.207 and 0.177 and 0.165 and 0.164 | OD600 (A. baumannii AB5075 [4]; 8 ug/mL, time 12 h, passage 1, replicates rep1-rep4, raw OD600 (blank OD600 0.114667)): 0.193 and 0.169 and 0.147 and 0.152 | OD600 (A. baumannii AB5075 [4]; 8 ug/mL, time 24 h, passage 2, replicates rep1-rep4, raw OD600 (blank OD600 0.0956667)): 0.091 and 0.092 and 0.09 | OD600 (A. baumannii AB5075 [4]; 8 ug/mL, time 36 h, passage 3, replicates rep1-rep4, raw OD600 (blank OD600 0.088)): 0.091 and 0.09 and 0.092 | OD600 (A. baumannii AB5075 [4]; 8 ug/mL, time 48 h, passage 4, replicates rep1-rep4, raw OD600 (blank OD600 0.104667)): 0.091 and 0.094 and 0.101 | OD600 (A. baumannii AB5075 [4]; 8 ug/mL, time 60 h, passage 5, replicates rep1-rep4, raw OD600 (blank OD600 0.122333)): 0.112 and 0.116 and 0.106 and 0.123 | OD600 (A. baumannii AB5075 [4]; 8 ug/mL, time 72 h, passage 6, replicates rep1-rep4, raw OD600 (blank OD600 0.095)): 0.092 and 0.085 and 0.096 | OD600 (A. baumannii AB5075 [4]; 8 ug/mL, time 84 h, passage 7, replicates rep1-rep4, raw OD600 (blank OD600 0.091)): 0.089 and 0.091 and 0.092 and 0.093 | OD600 (A. baumannii AB5075 [4]; 8 ug/mL, time 96 h, passage 8, replicates rep1-rep4, raw OD600 (blank OD600 0.0953333)): 0.09 and 0.092 and 0.097 and 0.093 | OD600 (A. baumannii AB5075 [4]; 8 ug/mL, time 108 h, passage 9, replicates rep1-rep4, raw OD600 (blank OD600 0.100667)): 0.111 and 0.118 and 0.121 and 0.105 | OD600 (A. baumannii AB5075 [4]; 8 ug/mL, time 120 h, passage 10, replicates rep1-rep4, raw OD600 (blank OD600 0.0983333)): 0.118 and 0.132 and 0.121 and 0.13 | OD600 (A. baumannii AB5075 [4]; 8 ug/mL, time 132 h, passage 11, replicates rep1-rep4, raw OD600 (blank OD600 0.0843333)): 0.12 and 0.124 and 0.123 and 0.117 | OD600 (A. baumannii AB5075 [4]; 8 ug/mL, time 144 h, passage 12, replicates rep1-rep4, raw OD600 (blank OD600 0.091)): 0.126 and 0.122 and 0.125 and 0.13 | OD600 (A. baumannii AB5075 [4]; 8 ug/mL, time 156 h, passage 13, replicates rep1-rep4, raw OD600 (blank OD600 0.129)): 0.117 and 0.116 and 0.13 and 0.112 | OD600 (A. baumannii AB5075 [4]; 8 ug/mL, time 168 h, passage 14, replicates rep1-rep4, raw OD600 (blank OD600 0.101)): 0.095 and 0.092 | time to emergence of resistance (A. baumannii AB5075 [4]; 4× MIC, 7-day passaging): ≤ 3 days | growth over 7 days (A. baumannii AB5075 [4]; 32× MIC): No growth | OD600 (A. baumannii AB5075 [4]; in vitro passaging, concentration 8 ug/mL, time 168 h, passage 14, individual replicates rep1-rep4, not blank-subtracted (blank OD600 0.101)): 0.093 and 0.094
